Measured values taken from patent publication US20030004355A1, “Fused pyrazolyl compounds” (priority 2001, published 2003).

Assays:
platelets = experiment: Inhibition of platelet aggregation (turbidimetric, washed platelets); assay type: cell-based; conditions: washed rabbit platelets, AA; for inhibitory effect on platelet aggregation induced by different inducers: inducers thrombin, collagen, PAF, read 5 minutes after the inducer
Method: In vitro assays can be used to evaluate the efficacy of a fused pyrazolyl compound of this invention in inhibiting platelet aggregation; which is attributable to low intracellular cGMP levels. For example, the compound is incubated in a platelet suspension containing a platelet aggregation factor, and the degree of aggregation is measured turbidimetrically with a dual-channel lumiaggregometer and converted into a percentage value by the method described in Teng et al., Biochem. Biophys Acta. 1987, 924:375-382.
EDTA was added to blood collected from the marginal ear vein of a rabbit to reach a final EDTA concentration of 6 mM. The EDTA-containing blood was then centrifuged at 90×g for 10 minutes at the room temperature. The supernatant, a platelet-rich plasma, was further centrifuged at 500×g for 10 minutes. The platelet pellets thus obtained were washed with a solution containing EDTA (2 mM) and serum albumin (3.5 mg/mL), and then centrifuged again at 500×g for 10 minutes. The pellets were then washed with an EDTA-free Tyrode's solution of the following composition (mM): NaCl (136.8), KCl (2.8), NaHCO3 (11.9), MgCl2 (1.1), NaH2PO4 (0.33), CaCl2 (1.0), and glucose (11.2). After centrifugation under the same conditions, the platelet pellets were suspended in the EDTA-free Tyrode's solution described above. The platelet number was counted by a Coulter Counter (Model ZM) and adjusted to 4.5×10^8 platelets/mL.
A compound to be tested was added to 4 platelet suspensions, which were then incubated at 37° C. for 3 minutes under a stirring condition (900 rpm). One minute after the stirring, four aggregation inducers, i.e., thrombin, collagen, arachidonic acid (AA), and platelet aggregation factor (PAF), were respectively added into the 4 suspensions, causing the platelets to aggregate. Platelet aggregation in each suspension was measured with a dual-channel lumiaggregometer (Model 1020, Payton, Canada) by the turbidimetric method described in Born et al., J. Physiol. 1963, 168:178-195. The percentage values of the platelet aggregation, determined 5 minutes after the addition of each aggregation inducer, were calculated by the method described in Teng et al., Biochem. Biophys Acta. 1987, 924:375-382.

PDEs = experiment: Inhibition of PDE (conversion of [3H]cGMP by platelet lysate supernatant); assay type: biochemical; conditions: 10 μM compound; washed human platelet supernatant; 10 μM cGMP; 37° C., 30 minutes
Method: The efficacy of a compound in inhibiting PDEs can be evaluated in vitro by the following assay. Washed platelets are suspended in a Tris-HCl buffer and disrupted by sonication. The lysate is centrifuged to obtain a supernatant which contains PDEs. An aliquot of the supernatant is taken to prepare a PDE-containing solution. The compound to be tested and cGMP (a substrate for PDE) are added to the solution. Ophiophagus hannah snake venom is subsequently added to remove the phosphate in 5′-GMP (converted from cGMP by PDEs) to form uncharged guanosine. An ion-exchange resin is used to remove the remaining cGMP. The cGMP-free solution is then centrifuged, and an aliquot of the supernatant is taken for quantification of the uncharged guanosine in a liquid scintillation counter. Activity of PDEs is evaluated based on the amount of the uncharged guanosine.
Washed human platelets were prepared by the method described in Teng et al., Biochem. Biophys. Acta. 1989, 990:315-320. They were then suspended in 50 mM pH 7.4 Tris-HCl buffer (containing 5 mM MgCl2) and subsequently disrupted by sonication at 4° C. […] Each cGMP-free solution thus obtained was then centrifuged, and an aliquot (0.5 mL) of the supernatant was taken for quantification of uncharged guanosine in a liquid scintillation counter.

sGC = experiment: Activation of sGC (conversion of [α-32P]GTP to cGMP by platelet lysate supernatant); assay type: biochemical; conditions: 100 μM compound; washed rabbit platelet supernatant; 30° C., 10 minutes
Method: The efficacy of a compound in activating sGC can be evaluated in vitro by the following assay. Washed platelets are suspended in a buffer and disrupted by sonication. The lysate is then centrifuged to obtain a supernatant which is used as the source of sGC. An aliquot of the supernatant and the compound to be tested are added into a buffer containing GTP, a substrate for sGC. The activity of sGC can be determined by the method described in Gerzer et al., J. Pharmacol. Exp. Ther. 1983, 226:180.
Washed rabbit platelets were prepared by the method described in Teng et al., Thromb. Haemost. 1988, 59:304. They were then suspended in 50 mM pH 7.4 Tris-HCl buffer and subsequently disrupted by sonication. The lysate thus obtained was centrifuged at 39,000×g at 4° C. for 20 minutes, and the supernatant was used as the source of sGC. Two 50 μL aliquots of the supernatant were respectively added to two 150 μL pH 7.4 Tris-HCl (50 mM) buffer solutions, each containing GTP (0.2 mM, containing 1×10^6 cpm [α-^32P]GTP), MgCl2 (5 mM), cGMP (2.5 mM), creatine phosphate (15 mM), and creatine phosphokinase (30 μg). One of the two solutions also contained 100 μM compound 3. After incubation at 30° C. for 10 minutes, conversion of GTP to cGMP by sGC was terminated with HCl (200 μL, 0.5 N). […] Radioactivity ([^32P]cGTP) was measured in a liquid scintillation counter to determine the amount of […].

Structure (SMILES)	inhibitory effect on platelet aggregation induced by different inducers (platelets)	relative effectiveness in inhibiting platelet aggregation among compounds 1-4 (platelets; aggregation induced by thrombin, collagen, and PAF)	inhibition of PDEs (PDEs)	activation of sGC (sGC)
COC(=O)c1ccc(-c2nn(Cc3ccccc3)c3cc4c(cc23)OCO4)o1 [Compound 1, 1-benzyl-3-(5′-methoxycarbonyl-2′-furyl)-5,6-methylenedioxoindazole]	showed inhibitory effect on platelet aggregation	–	–	–
O=C(O)c1ccc(-c2nn(Cc3ccccc3)c3cc4c(cc23)OCO4)o1 [Compound 2, 1-benzyl-3-(5′-hydroxycarbonyl-2′-furyl)-5,6-methylenedioxoindazole]	showed inhibitory effect on platelet aggregation	–	–	–
OCc1ccc(-c2nn(Cc3ccccc3)c3cc4c(cc23)OCO4)o1 [Compound 3, 1-benzyl-3-(5′-hydroxymethyl-2′-furyl)-5,6-methylenedioxoindazole]	showed inhibitory effect on platelet aggregation	the most effective	potent inhibitor of PDEs	effective activator of sGC
COCc1ccc(-c2nn(Cc3ccccc3)c3cc4c(cc23)OCO4)o1 [Compound 4, 1-benzyl-3-(5′-methoxymethyl-2′-furyl)-5,6-methylenedioxoindazole]	showed inhibitory effect on platelet aggregation	–	–	–
